Source: patent publication US20260060910A1, “COMPOSITION FOR ACTIVATING EXTERNAL BARRIER” (Yuki Gosei Kogyo Co., Ltd., priority 2024, published 2026)

Test system: miRNA contained in exosomes secreted from C2C12 cells
Conditions: exosomes from β-alanine-treated C2C12 cells vs control; microarray; FIG. 4
Description: In this example, miRNAs in exosomes were analyzed by microarray.
The exosome solution purified in Example 2 was used for microarray analysis. The microarray experiment was outsourced to Kamakura Techno Science (Kanagawa, Japan). Based on the data obtained, samples with a ratio of 1.5 or more compared to the control and one of the signal values of two samples exceeding 100 were extracted as miRNAs with altered transcription levels.

## NCCC(=O)O [β-alanine]
  number of miRNAs decreased: 14
  number of miRNAs increased: six
